The record followed here is ChEMBL document CHEMBL5465560, “Selectivity Literature for EUbOPEN Chemogenomic Library” (2024).

Assay [1] has as its target T1, Histone-arginine methyltransferase CARM1 (Homo sapiens) (UniProt Q86X55).
T1 sequence (whole entry): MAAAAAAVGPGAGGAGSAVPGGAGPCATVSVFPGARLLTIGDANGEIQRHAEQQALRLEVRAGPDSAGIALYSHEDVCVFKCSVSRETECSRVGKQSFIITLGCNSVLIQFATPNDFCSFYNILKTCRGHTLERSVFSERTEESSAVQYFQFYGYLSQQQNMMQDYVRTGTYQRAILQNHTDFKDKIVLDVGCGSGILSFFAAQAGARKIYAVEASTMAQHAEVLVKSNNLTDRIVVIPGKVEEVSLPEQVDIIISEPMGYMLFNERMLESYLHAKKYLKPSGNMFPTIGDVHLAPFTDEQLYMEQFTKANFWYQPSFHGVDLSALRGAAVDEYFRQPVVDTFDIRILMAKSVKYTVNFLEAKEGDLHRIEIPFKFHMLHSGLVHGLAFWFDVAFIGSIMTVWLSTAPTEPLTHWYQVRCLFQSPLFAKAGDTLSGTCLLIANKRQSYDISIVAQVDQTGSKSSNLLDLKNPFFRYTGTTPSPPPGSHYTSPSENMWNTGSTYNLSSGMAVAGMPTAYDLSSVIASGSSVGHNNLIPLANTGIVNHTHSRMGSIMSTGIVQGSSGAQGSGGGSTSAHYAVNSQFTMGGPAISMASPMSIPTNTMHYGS
The assay can be described thus: Selectivity interaction (Methyltransferase screen (Scintillation proximity assays)) EUB0000255b CARM1.

The test system of assay [2] is Tyrosine-protein kinase ABL1 (Homo sapiens), P00519 [M351T]. Conditions: at 10 µM.
Assay [3] has as its target T2, Muscle, skeletal receptor tyrosine-protein kinase (Homo sapiens) (UniProt O15146).
T2 sequence (whole entry): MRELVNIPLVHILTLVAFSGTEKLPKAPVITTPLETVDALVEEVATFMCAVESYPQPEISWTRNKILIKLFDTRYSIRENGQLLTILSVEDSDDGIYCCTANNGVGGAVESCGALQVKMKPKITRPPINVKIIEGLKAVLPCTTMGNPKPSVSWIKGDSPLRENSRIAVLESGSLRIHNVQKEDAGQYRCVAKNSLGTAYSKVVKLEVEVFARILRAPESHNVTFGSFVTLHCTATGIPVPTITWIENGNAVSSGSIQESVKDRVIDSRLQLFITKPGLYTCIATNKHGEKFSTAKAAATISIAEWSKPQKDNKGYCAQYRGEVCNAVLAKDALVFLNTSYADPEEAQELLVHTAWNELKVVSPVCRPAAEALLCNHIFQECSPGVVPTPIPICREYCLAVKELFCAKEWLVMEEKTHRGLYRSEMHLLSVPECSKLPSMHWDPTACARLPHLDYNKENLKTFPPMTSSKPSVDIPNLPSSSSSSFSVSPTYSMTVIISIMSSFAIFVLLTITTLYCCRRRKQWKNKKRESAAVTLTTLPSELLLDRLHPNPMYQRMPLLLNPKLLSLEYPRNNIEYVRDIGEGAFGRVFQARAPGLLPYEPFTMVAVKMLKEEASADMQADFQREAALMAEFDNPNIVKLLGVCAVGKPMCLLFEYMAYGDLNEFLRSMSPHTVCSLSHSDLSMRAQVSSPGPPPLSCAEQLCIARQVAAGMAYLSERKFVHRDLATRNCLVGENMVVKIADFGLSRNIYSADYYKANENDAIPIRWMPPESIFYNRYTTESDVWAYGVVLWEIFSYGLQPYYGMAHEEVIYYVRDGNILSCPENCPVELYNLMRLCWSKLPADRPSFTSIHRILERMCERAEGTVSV
The assay can be described thus: Selectivity interaction (KinomeScan (DiscoverX)) EUB0000607a MUSK. Conditions: at 10 µM.

The target of assay [4] is Ribosomal protein S6 kinase alpha-1 (Homo sapiens, UniProt Q15418). Kind of assay: Selectivity interaction (ActivX KiNativ screen (kinase selectivity in THP-1 cell lysates)) EUB0000639a RPS6KA1. In kind it is subcellular. Conditions: lysate, at 1 µM.
Assay [5] has as its target Ephrin type-A receptor 2 (Homo sapiens) (UniProt P29317). Kind of assay: Selectivity interaction (Kinase panel (literature)) EUB0001199aCl EPHA2. Conditions: at 1 µM.
Assay [6] concerns the target T3, Mitogen-activated protein kinase kinase kinase 12 (Homo sapiens) (UniProt Q12852).
T3 sequence (whole entry): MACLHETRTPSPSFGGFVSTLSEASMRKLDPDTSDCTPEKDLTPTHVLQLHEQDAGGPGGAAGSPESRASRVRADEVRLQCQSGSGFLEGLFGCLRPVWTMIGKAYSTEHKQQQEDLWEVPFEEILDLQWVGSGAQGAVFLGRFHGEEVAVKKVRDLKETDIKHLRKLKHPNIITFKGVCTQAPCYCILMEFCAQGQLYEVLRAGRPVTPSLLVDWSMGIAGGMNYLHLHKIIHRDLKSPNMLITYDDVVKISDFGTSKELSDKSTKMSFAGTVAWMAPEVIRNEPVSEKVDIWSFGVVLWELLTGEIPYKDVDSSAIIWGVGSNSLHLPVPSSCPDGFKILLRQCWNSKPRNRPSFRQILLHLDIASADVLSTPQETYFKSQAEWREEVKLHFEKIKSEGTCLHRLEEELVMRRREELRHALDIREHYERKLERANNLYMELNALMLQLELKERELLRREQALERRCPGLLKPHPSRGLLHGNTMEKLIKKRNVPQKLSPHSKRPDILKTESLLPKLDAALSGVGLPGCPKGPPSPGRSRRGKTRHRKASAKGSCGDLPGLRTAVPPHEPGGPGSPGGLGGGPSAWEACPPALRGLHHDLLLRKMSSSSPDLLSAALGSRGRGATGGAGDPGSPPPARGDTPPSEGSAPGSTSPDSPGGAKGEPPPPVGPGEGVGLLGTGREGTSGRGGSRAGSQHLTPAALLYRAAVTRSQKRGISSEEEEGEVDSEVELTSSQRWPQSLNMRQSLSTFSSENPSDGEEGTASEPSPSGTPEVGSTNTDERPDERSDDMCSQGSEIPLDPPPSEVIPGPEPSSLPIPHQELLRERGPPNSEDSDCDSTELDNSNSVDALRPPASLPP
The assay can be described thus: Selectivity interaction (Ambit KINOMEscan and KiNATiv profiling in Jurkat cells) EUB0000090b MAP3K12. Format: cell-based. Conditions: at 1 µM.

Assay [7] deals with Fibroblast growth factor receptor 2 (Homo sapiens) (UniProt P21802). Kind of assay: Selectivity interaction (KinomeScan (DiscoverX)) EUB0001049a FGFR2. Conditions: at 1 µM.
In assay [8] the target is Ribosomal protein S6 kinase alpha-6 (Homo sapiens, UniProt Q9UK32). The assay can be described thus: Selectivity interaction (KinomeScan (DiscoverX)) EUB0000092b RPS6KA6. As to conditions: at 10 µM.
The target of assay [9] is Bromodomain-containing protein 2 (Homo sapiens) (UniProt P25440). The assay can be described thus: Selectivity interaction (Human bromodomain panel (DSF assay)) EUB0000233b BRD2.
In assay [10] the target is SRSF protein kinase 2 (Homo sapiens) (UniProt P78362). Kind of assay: Selectivity interaction (KinomeScan (DiscoverX)) EUB0001079a SRPK2. As to conditions: at 1 µM.
The target of assay [11] is Casein kinase II subunit alpha (Homo sapiens, UniProt P68400). Kind of assay: Selectivity interaction (KinomeScan (DiscoverX)) EUB0001079a CSNK2A1. As to conditions: at 1 µM.

Structures are written as SMILES.

Sequence of Ribosomal protein S6 kinase alpha-6 (Q9UK32 whole entry): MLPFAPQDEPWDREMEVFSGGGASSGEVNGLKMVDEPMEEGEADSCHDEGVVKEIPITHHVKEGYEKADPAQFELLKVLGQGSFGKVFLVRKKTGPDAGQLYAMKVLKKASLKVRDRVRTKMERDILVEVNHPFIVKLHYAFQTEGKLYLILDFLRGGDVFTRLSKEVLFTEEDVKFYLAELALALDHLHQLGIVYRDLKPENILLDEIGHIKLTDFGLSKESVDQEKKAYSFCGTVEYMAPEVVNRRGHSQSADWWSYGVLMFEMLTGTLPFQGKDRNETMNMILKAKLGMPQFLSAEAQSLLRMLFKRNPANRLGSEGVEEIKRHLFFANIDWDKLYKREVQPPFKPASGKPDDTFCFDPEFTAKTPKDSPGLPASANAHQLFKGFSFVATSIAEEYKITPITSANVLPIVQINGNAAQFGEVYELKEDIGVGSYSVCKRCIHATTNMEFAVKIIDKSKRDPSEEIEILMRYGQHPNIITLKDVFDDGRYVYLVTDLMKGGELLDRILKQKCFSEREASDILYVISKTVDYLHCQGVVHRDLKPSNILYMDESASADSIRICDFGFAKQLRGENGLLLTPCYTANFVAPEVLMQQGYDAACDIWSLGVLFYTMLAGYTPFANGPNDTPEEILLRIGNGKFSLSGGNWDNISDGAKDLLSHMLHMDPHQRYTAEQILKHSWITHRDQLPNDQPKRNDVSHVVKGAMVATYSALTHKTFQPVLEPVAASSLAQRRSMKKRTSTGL
Sequence of Ephrin type-A receptor 2 (Homo sapiens) (P29317 whole entry): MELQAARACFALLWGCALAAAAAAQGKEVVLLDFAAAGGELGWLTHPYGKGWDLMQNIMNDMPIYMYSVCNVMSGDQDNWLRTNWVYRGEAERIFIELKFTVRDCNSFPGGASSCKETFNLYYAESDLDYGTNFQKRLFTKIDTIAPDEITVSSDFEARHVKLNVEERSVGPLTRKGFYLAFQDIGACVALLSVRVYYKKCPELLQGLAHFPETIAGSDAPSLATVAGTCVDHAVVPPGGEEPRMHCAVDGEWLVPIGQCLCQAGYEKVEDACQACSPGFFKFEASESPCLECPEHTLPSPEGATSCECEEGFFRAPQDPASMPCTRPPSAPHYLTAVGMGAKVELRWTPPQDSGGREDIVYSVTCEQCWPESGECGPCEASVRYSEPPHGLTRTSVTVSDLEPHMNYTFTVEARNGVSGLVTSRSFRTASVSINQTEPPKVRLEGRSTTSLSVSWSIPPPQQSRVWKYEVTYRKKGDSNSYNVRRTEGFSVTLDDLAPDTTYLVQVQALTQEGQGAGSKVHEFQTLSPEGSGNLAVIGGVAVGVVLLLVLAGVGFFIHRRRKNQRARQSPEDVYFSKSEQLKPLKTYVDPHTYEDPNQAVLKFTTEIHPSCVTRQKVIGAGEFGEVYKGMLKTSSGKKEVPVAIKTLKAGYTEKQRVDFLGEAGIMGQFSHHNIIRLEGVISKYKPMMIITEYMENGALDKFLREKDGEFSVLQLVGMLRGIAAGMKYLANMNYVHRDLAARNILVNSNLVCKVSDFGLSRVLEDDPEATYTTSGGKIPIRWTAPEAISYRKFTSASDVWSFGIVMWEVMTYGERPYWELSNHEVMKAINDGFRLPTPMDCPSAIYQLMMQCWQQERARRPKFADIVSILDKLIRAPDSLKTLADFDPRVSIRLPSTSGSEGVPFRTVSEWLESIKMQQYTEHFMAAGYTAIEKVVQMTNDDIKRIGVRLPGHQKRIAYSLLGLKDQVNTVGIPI
Sequence of Bromodomain-containing protein 2 (Homo sapiens) (P25440 whole entry, looked up): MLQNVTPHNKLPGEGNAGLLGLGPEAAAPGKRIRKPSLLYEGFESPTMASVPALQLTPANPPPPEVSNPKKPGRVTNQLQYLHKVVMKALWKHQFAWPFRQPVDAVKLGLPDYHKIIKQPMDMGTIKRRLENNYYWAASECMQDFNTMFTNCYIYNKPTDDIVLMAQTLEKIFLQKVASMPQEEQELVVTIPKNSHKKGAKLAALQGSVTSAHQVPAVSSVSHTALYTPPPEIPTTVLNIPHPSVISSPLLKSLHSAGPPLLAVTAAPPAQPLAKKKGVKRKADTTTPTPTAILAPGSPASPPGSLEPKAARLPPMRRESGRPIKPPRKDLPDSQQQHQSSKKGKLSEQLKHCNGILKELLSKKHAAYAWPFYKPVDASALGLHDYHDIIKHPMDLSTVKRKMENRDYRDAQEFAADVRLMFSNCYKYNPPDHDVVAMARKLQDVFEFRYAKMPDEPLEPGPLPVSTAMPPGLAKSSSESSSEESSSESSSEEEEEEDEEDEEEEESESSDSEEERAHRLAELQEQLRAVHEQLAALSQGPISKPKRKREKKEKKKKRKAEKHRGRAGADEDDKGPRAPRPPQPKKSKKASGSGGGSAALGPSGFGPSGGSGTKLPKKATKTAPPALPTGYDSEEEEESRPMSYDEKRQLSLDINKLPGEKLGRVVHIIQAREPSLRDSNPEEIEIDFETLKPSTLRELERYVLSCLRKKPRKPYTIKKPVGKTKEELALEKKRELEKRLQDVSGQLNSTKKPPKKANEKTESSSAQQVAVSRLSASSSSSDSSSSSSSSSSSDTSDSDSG
Sequence of Fibroblast growth factor receptor 2 (Homo sapiens) (P21802 22-821 limits assumed): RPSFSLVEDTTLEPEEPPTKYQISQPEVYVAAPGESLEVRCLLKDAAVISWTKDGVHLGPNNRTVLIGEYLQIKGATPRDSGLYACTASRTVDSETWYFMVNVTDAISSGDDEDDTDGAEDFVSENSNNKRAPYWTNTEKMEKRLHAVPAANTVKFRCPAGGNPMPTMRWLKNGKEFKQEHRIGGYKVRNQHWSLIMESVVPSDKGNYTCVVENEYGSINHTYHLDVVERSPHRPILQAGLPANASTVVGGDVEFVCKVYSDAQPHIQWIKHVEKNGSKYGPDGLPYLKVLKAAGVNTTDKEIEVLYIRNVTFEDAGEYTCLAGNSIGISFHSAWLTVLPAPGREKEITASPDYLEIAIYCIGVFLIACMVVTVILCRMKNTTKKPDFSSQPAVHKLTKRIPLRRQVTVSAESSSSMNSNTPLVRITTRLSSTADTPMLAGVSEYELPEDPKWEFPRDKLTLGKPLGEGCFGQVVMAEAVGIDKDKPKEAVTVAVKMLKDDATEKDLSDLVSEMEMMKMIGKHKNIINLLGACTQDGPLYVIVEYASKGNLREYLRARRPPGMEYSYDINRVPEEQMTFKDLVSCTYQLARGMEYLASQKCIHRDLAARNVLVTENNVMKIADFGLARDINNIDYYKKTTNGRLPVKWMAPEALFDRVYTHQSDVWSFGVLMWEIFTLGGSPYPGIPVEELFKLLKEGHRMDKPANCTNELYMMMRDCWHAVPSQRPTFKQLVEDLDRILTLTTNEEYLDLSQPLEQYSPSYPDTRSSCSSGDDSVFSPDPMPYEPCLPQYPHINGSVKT
Sequence of Ribosomal protein S6 kinase alpha-1 (Q15418 whole entry): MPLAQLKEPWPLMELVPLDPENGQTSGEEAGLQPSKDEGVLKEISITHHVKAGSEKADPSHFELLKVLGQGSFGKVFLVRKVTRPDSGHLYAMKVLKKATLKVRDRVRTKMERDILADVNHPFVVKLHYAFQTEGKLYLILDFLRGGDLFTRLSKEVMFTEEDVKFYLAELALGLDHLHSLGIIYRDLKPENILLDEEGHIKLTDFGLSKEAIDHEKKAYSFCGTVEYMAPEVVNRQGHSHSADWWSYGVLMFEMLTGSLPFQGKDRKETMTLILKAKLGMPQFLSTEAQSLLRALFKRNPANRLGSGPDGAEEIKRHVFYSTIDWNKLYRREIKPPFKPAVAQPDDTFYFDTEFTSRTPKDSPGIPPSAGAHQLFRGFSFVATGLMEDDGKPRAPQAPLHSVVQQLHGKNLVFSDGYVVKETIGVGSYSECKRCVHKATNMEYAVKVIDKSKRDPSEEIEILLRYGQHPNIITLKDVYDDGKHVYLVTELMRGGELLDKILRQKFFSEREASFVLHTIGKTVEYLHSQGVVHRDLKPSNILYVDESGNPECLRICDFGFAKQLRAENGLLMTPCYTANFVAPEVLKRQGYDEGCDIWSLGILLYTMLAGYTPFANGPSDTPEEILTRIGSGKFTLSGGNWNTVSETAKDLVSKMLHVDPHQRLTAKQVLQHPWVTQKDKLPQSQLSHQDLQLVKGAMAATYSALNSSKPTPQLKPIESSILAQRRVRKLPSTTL
Sequence of SRSF protein kinase 2 (Homo sapiens) (P78362 whole entry, looked up): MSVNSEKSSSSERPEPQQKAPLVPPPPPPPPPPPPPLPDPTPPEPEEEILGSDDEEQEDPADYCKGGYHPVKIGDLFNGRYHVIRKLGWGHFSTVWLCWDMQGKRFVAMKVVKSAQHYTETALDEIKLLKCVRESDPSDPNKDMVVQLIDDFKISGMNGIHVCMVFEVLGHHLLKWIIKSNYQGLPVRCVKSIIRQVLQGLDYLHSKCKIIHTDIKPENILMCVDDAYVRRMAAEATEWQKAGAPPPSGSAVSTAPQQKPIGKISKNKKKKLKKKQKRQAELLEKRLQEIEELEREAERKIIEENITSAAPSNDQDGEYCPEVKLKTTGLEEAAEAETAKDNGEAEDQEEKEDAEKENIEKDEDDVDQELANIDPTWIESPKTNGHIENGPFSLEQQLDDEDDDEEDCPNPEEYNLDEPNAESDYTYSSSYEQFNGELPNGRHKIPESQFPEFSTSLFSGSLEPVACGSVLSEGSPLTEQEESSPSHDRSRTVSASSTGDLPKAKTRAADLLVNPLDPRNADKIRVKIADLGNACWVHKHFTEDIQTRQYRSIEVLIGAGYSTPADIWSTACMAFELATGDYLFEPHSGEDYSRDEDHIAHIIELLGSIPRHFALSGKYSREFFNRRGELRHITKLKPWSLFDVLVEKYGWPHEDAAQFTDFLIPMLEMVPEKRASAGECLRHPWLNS

As for `COCCN1CCC(c2cc(CN(C)C(=O)c3cccc(Oc4ccccc4)c3)ccn2)CC1`, the % activity in assay [1] (at 1 µM) is < 1%; in assay [1] (at 10 µM) it was 23%.

`CCN(CC)CCCCNc1ncc2cc(-c3cc(OC)cc(OC)c3)c(NC(=O)NC(C)(C)C)nc2n1`: in assay [2], the % of control is 100%.

The compound `CNC(=O)Nc1ccc(-c2nc(N3CC4CCC(C3)O4)c3cnn(C4CCC5(CC4)OCCO5)c3n2)cc1` showed a % of control in [3] of 92%.

As to `CC[C@@H]1[C@H](F)C(=O)N[C@@H]1COc1nccc2cc(C(N)=O)c(OC)cc12` [ZIMLOVISERTIB], the % of inhibition in assay [4] was -1%.

`CN1Cc2nccc(-c3cn(C)nc3-c3ccc(F)cc3)c2C1=O`: the % of inhibition in assay [5] is 4%.

On to `CN(C)C/C=C/C(=O)Nc1ccc(C(=O)N2CCCC(Nc3ncc(Cl)c(-c4c[nH]c5ccccc45)n3)C2)cc1` (configuration not stated), for which the % of control in [6] came out at 89%.

`COc1cc(Nc2nc(C)cc(-c3cnn4nc(OC)ccc34)n2)cc(C(F)(F)F)c1`: the % of control in assay [7] was 90%.

Take `CCC(=O)N1CCN(c2ccc(-n3c(=O)ccc4cnc5ccc(-c6cnc7ccccc7c6)cc5c43)cc2C(F)(F)F)CC1`: in assay [8], the % of control was determined as 86%.

Consider `CN(C)CCCOc1ccc(-c2cc(NCCCn3cccn3)nc(S(C)(=O)=O)n2)cc1`, for which, in assay [9], the dTM was < 2 K.

Turning to `Nc1cnc(N2CCc3cc(S(=O)(=O)Nc4c(F)cc(Cl)cc4F)cc(N4CCCC4=O)c32)nc1` [TP-020n], the % of control in assay [10] and in assay [11] was 100% in each case.
